From ChEMBL document CHEMBL4325908, “Ligand-based design, synthesis and biological evaluation of xanthine derivatives as LSD1/KDM1A inhibitors” (Eur J Med Chem, 2019)

Legend:
MAO-B [1] = target: T1, MAO-B (Homo sapiens, UniProt P27338); test: Inhibition of full length recombinant FLAG-tagged human MAO-B expressed in baculovirus infected sf9 cells at 1 uM preincubated for 15 mins followed by luciferin derived substrate addition measured after 60 mins by luciferase reporter gene assay relative to control; conditions: probe luciferin derived substrate
T1 sequence (P27338 whole entry): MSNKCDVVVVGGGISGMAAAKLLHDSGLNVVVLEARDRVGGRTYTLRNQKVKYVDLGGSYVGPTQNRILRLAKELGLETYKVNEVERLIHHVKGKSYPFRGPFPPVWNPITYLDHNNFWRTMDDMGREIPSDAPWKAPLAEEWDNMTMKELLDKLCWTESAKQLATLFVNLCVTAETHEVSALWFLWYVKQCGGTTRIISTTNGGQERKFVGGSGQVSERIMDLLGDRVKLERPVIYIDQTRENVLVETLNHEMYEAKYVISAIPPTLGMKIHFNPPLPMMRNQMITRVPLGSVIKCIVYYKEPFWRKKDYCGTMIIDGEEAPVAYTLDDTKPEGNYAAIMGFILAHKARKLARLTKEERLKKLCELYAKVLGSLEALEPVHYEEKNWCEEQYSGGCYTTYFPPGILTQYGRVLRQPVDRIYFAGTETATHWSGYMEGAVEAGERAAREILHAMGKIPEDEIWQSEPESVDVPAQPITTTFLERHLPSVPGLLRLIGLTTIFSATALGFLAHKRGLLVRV

MGC-803 [2] = test: Ratio of IC50 for LSD1 knock down human MGC803 cells to IC50 for human MGC803 cells; assay type: functional
MAO-A [3] = target: T2, MAO-A (Homo sapiens, UniProt P21397); test: Inhibition of full length recombinant FLAG-tagged human MAO-A expressed in baculovirus infected sf9 cells at 0.1 uM preincubated for 15 mins followed by luciferin derived substrate addition measured after 60 mins by luciferase reporter gene assay relative to control; conditions: probe luciferin derived substrate
T2 sequence (P21397 whole entry): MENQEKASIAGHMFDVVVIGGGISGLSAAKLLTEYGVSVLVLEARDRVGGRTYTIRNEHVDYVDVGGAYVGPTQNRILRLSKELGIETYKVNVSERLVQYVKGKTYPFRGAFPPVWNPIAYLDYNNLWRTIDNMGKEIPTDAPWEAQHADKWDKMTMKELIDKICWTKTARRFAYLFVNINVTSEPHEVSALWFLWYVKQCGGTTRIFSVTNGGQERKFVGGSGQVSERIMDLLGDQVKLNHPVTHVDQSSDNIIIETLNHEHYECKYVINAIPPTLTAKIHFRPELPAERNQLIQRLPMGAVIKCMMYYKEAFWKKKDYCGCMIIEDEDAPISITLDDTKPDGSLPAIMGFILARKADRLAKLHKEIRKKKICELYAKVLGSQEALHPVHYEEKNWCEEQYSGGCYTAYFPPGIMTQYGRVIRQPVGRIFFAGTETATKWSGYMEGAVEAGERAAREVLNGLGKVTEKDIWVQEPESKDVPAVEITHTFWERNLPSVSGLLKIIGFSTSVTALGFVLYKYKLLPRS

MAO-A [4] = target: T2, MAO-A; test: Inhibition of full length recombinant FLAG-tagged human MAO-A expressed in baculovirus infected sf9 cells at 1 uM preincubated for 15 mins followed by luciferin derived substrate addition measured after 60 mins by luciferase reporter gene assay relative to control; conditions: probe luciferin derived substrate
[5] = target: Indoleamine 2,3-dioxygenase 1 (Homo sapiens, UniProt P14902); test: Inhibition of IDO1 (unknown origin)
Indoleamine 2,3-dioxygenase 1, sequence (P14902 whole entry): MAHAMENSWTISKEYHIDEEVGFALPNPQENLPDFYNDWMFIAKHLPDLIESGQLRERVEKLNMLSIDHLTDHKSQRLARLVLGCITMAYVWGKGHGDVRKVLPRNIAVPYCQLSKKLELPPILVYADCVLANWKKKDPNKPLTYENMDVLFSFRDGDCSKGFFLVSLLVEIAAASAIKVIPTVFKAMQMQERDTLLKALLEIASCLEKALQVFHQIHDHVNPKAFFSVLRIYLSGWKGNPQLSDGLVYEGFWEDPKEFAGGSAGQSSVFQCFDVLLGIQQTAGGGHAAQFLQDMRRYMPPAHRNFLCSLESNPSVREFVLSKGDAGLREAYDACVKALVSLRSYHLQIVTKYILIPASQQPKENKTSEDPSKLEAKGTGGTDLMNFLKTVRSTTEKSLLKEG

MGC-803 [6] = test: Antiproliferative activity against human MGC803 cells after 72 hrs by MTT assay; conditions: MGC-803, 72 h
MAO-B [7] = target: T1, MAO-B; test: Inhibition of full length recombinant FLAG-tagged human MAO-B expressed in baculovirus infected sf9 cells at 0.1 uM preincubated for 15 mins followed by luciferin derived substrate addition measured after 60 mins by luciferase reporter gene assay relative to control; conditions: probe luciferin derived substrate
MGC-803 [8] = test: Antiproliferative activity against LSD1 knock down human MGC803 cells after 72 hrs by MTT assay; assay type: functional, cell-based; conditions: MGC-803, 72 h
[9] = target: Bromodomain-containing protein 4 (Homo sapiens) (UniProt O60885); test: Inhibition of BRD4 (unknown origin) at 25 uM relative to control
[10] = target: Lysine-specific histone demethylase 1A (Homo sapiens, UniProt O60341); test: Inhibition of full length recombinant LSD1 (unknown origin) expressed in Escherichia coli BL21(DE3) using H3K4me2 as substrate after 30 mins in presence of FAD by amplex red reagent based fluorescence assay

Row | Structure (SMILES) | inhibition at 1 h, 1 µM (MAO-B [1]) | Ratio IC50 (MGC-803 [2]) | inhibition at 1 h, 0.1 µM (MAO-A [3]) | inhibition at 1 h, 1 µM (MAO-A [4]) | IC50 [5] | IC50 (MGC-803 [6]) | inhibition at 1 h, 0.1 µM (MAO-B [7]) | IC50 (MGC-803 [8]) | inhibition [9] | IC50 [10]
1 | CCCn1c(SCc2cccc(C)c2)nc2c1c(=O)[nH]c(=O)n2C | 61% | 2 - 3 | 9% | 20% | 96.9 µM | 2.46 µM | 16% | 4.97 µM | 52% | 8.89 µM
2 | CCCn1c(SCc2ccc(F)cc2)nc2c1c(=O)[nH]c(=O)n2C | – | 2 - 3 | – | – | 96.9 µM | 0.687 µM | – | 2.02 µM | 49% | 14.2 µM
3 | CCCn1c(S)nc2c1c(=O)[nH]c(=O)n2C | – | – | – | – | – | – | – | – | – | 6.45 µM
4 | CCCn1c(SCc2ccc(Cl)cc2)nc2c1c(=O)[nH]c(=O)n2C | – | – | – | – | – | – | – | – | – | 25.7 µM
